Experimental data taken from patent US8377691B2 (priority 2006, dated 2013).
Entries after “also recorded” stand apart in the source; their conditions may differ.

Test system: A/M2 VN1194
Assay type: biochemical

Row | Structure (SMILES) | H+ transport across VLP membranes (fluorescence)
1 | CC(N)C12CC3CC(CC(C3)C1)C2 (centres unmarked) [rimantadine] | exerted no effect
2 | NC12CC3CC(CC(C3)C1)C2 [amantadine] | exerted no effect; also recorded: did not, however, influence
